Measurements: patent publication US20230085307A1, “PYRIDAZINONE COMPOUND AND HERBICIDE” (NISSAN CHEMICAL CORPORATION, priority 2019, published 2023)

What was measured:
oval-leafed pondweed = assay: Test Example 1: herbicidal activity, application before weed generation under submerged conditions (Table 16, symbol C); assay type: in vivo, oval-leafed pondweed (Monochoria vaginalis); conditions: amount of applied herbicide 320 g/ha
In short: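 Submerged Wagner pots (alluvial soil, 4 cm water) sown with weed seeds and planted with 2.5-leaf rice seedlings; emulsifiable concentrate diluted in water applied to water surface on sowing day. Held in greenhouse at 25-30 °C; injury scored 0-5 by herbicidal rate after three weeks.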

late watergrass = assay: Test Example 2: herbicidal activity, application during weed generation under submerged conditions (Table 17, symbol A); assay type: in vivo, late watergrass (Echinochloa oryzicola); conditions: for herbicidal effect rating, A: late watergrass: AAH 320 g/ha, application during weed generation, submerged conditions
In short: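 Herbicide emulsion, diluted with water to the chosen amount, is applied onto 4 cm floodwater over alluvial soil where the weeds were co-sown and raised at 25–30° C. Application timing: 1–2 leaves. Assessment: three weeks afterwards.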

barnyard grass [1] = assay: Test Example 3: herbicidal effect by foliage application, Wagner pot (Table 18, symbol H); assay type: in vivo, barnyard grass (Echinochloa crus-galli); conditions: for herbicidal effect on barnyard grass (H): 320 g/ha
In short: (§1)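 Plants were sown in alluvial soil held under 0.1–0.5 cm standing water and grown 14 days in a greenhouse at 25–30 °C. An emulsifiable formulation, water-diluted to the set dose, was then sprayed onto the foliage, and effects were scored three weeks later using previously defined criteria.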

Chinese sprangletop = assay: Test Example 3: herbicidal effect by foliage application, Wagner pot (Table 18, symbol D); assay type: in vivo, chinese sprangletop (Leptochloa chinensis); conditions: for herbicidal effect on Chinese sprangletop (D): 320 g/ha
In short: as §1

rice flat sedge = assay: Test Example 3: herbicidal effect by foliage application, Wagner pot (Table 18, symbol E); assay type: in vivo, rice flat sedge (Cyperus iria); conditions: for herbicidal effect on rice flat sedge (E): 320 g/ha
In short: as §1

southern crabgrass = assay: Test Example 4: herbicidal effect by soil treatment (Table 19, symbol F); assay type: in vivo, southern crabgrass (Digitaria ciliaris); conditions: amount of applied herbicide 320 g/ha
In short: (§2)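 Three weeks of greenhouse growth at 25° C. to 30° C. followed a uniform surface spray of water-diluted emulsion at a predetermined herbicide amount. Seeds had been sown beforehand under about 1.5 cm of sterilized diluvial soil. Grading followed criteria set out in an earlier test.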

barnyard grass [2] = assay: Test Example 4: herbicidal effect by soil treatment (Table 19, symbol H); assay type: in vivo, barnyard grass (Echinochloa crus-galli); conditions: amount of applied herbicide 320 g/ha
In short: as §2

windgrass = assay: Test Example 4: herbicidal effect by soil treatment (Table 19, symbol L); assay type: in vivo, windgrass (Apera spica-venti); conditions: amount of applied herbicide 320 g/ha
In short: as §2

chickweed = assay: Test Example 4: herbicidal effect by soil treatment (Table 19, symbol P); assay type: in vivo, common chickweed (Stellaria media); conditions: amount of applied herbicide 320 g/ha
In short: as §2

redroot pigweed = assay: Test Example 5: herbicidal effect by foliage application, plastic box (Table 20, symbol N); assay type: in vivo, redroot pigweed (Amaranthus retroflexus); conditions: for N: redroot pigweed, herbicidal effect grade: three weeks after application; for herbicidal effect on N: redroot pigweed (evaluation grade 0-5): foliage application after 14-day growth
In short: (§3)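 Plants sown in sterilized diluvial soil and grown 14 days in a greenhouse at 25° C to 30° C, then sprayed on the foliage with the compound's emulsion diluted in water to a predetermined herbicide amount. Injury to weeds and crops scored three weeks after application on a visual rating scale.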

lambsquarters = assay: Test Example 5: herbicidal effect by foliage application, plastic box (Table 20, symbol O); assay type: in vivo, lambsquarters (Chenopodium album); conditions: for O: lambsquarters, herbicidal effect grade: three weeks after application; for herbicidal effect on O: lambsquarters (evaluation grade 0-5): foliage application after 14-day growth
In short: as §3

persian speedwell = assay: Test Example 5: herbicidal effect by foliage application, plastic box (Table 20, symbol R); assay type: in vivo, Persian speedwell (Veronica persica); conditions: for R: persian speedwell, herbicidal effect grade: three weeks after application; for herbicidal effect on R: persian speedwell (evaluation grade 0-5): foliage application after 14-day growth
In short: as §3

[3] = amount of applied herbicide 320 g/ha
[4] = foliage application, AAH 320 g/ha, evaluated three weeks after application
[5] = foliage application, 320 g/ha, evaluated 3 weeks after application
[6] = 320 g/ha, evaluated three weeks after application

SMILES	Herbicidal effect, C: oval-leafed pondweed (oval-leafed pondweed)	herbicidal effect rating, A: late watergrass (late watergrass)	herbicidal effect on barnyard grass (H) (barnyard grass [1])	herbicidal effect on Chinese sprangletop (D) (Chinese sprangletop)	herbicidal effect on rice flat sedge (E) (rice flat sedge)	F: southern crabgrass, herbicidal effect grade (southern crabgrass)	H: barnyard grass, herbicidal effect grade (barnyard grass [2])	L: windgrass, herbicidal effect grade (windgrass)	P: chickweed, herbicidal effect grade (chickweed)	N: redroot pigweed, herbicidal effect grade (redroot pigweed; foliage application, 320 g/ha)	O: lambsquarters, herbicidal effect grade (lambsquarters; foliage application, 320 g/ha)	R: persian speedwell, herbicidal effect grade (persian speedwell; foliage application, 320 g/ha)	further results
COCCOc1ccc2c(-c3c(O)c(C)nn(C)c3=O)c(-c3ccccc3OC)sc2c1 [3-121]	5 (Herbicidal rate of 90% or more (almost completely withered))	3 (Herbicidal rate of 40% or more and less than 70%)	5 (Herbicidal rate of 90% or more (almost completely withered))	4 (Herbicidal rate of 70% or more and less than 90%)	5 (Herbicidal rate of 90% or more (almost completely withered))	5 (Herbicidal rate of 90% or more (almost completely withered))	5 (Herbicidal rate of 90% or more (almost completely withered))	5 (Herbicidal rate of 90% or more (almost completely withered))	5 (Herbicidal rate of 90% or more (almost completely withered))	5 (Herbicidal rate of 90% or more (almost completely withered))	5 (Herbicidal rate of 90% or more (almost completely withered))	5 (Herbicidal rate of 90% or more (almost completely withered))	
CCCC(=O)Oc1c(C)nn(C)c(=O)c1-c1c(-c2ccc(Cl)s2)sc2ccc(F)cc12 [2-391]	5 (Herbicidal rate of 90% or more (almost completely withered))	3 (Herbicidal rate of 40% or more and less than 70%)											herbicidal effect on H: barnyard grass (barnyard grass [1]; [3]): 5 (Herbicidal rate of 90% or more (almost completely withered)); herbicidal effect on D: Chinese sprangletop (Chinese sprangletop; [3]): 4 (Herbicidal rate of 70% or more and less than 90%); herbicidal effect on E: rice flat sedge (rice flat sedge; [3]): 5 (Herbicidal rate of 90% or more (almost completely withered)); herbicidal effect, F: southern crabgrass (southern crabgrass): 5 (Herbicidal rate of 90% or more (almost completely withered)); herbicidal effect, H: barnyard grass (barnyard grass [2]): 4 (Herbicidal rate of 70% or more and less than 90%); herbicidal effect, L: windgrass (windgrass): 3 (Herbicidal rate of 40% or more and less than 70%); herbicidal effect, P: chickweed (chickweed): 4 (Herbicidal rate of 70% or more and less than 90%); N: redroot pigweed, herbicidal effect (criteria 0-5) (redroot pigweed; [4]): 5 (Herbicidal rate of 90% or more (almost completely withered)); O: lambsquarters, herbicidal effect (criteria 0-5) (lambsquarters; [4]): 4 (Herbicidal rate of 70% or more and less than 90%); R: persian speedwell, herbicidal effect (criteria 0-5) (persian speedwell; [4]): 5 (Herbicidal rate of 90% or more (almost completely withered))
CCCCCOc1ccc2c(-c3c(O)c(C)nn(C)c3=O)c(-c3ccccc3OC)sc2c1 [3-108]	5 (Herbicidal rate of 90% or more (almost completely withered))	2 (Herbicidal rate of 20% or more and less than 40%)	3 (Herbicidal rate of 40% or more and less than 70%)	2 (Herbicidal rate of 20% or more and less than 40%)	1 (Herbicidal rate of 5% or more and less than 20%)	0 (Herbicidal rate of 5% or less (almost no effect))	0 (Herbicidal rate of 5% or less (almost no effect))	0 (Herbicidal rate of 5% or less (almost no effect))	0 (Herbicidal rate of 5% or less (almost no effect))	5 (Herbicidal rate of 90% or more (almost completely withered))	4 (Herbicidal rate of 70% or more and less than 90%)	4 (Herbicidal rate of 70% or more and less than 90%)	
Cc1ccc2oc(-c3ccc(OCC(C)C)cc3)c(-c3c(O)c(C)nn(C)c3=O)c2c1 [9-051]	5 (Herbicidal rate of 90% or more (almost completely withered))					1 (Herbicidal rate of 5% or more and less than 20%)	4 (Herbicidal rate of 70% or more and less than 90%)	4 (Herbicidal rate of 70% or more and less than 90%)	5 (Herbicidal rate of 90% or more (almost completely withered))				herbicidal effect grade, A: late watergrass (late watergrass; application during weed generation under submerged conditions, amount of applied herbicide 320 g/ha): 5 (Herbicidal rate of 90% or more (almost completely withered)); Herbicidal effect on H (barnyard grass), foliage application (barnyard grass [1]; [3]): 5 (Herbicidal rate of 90% or more (almost completely withered)); Herbicidal effect on D (Chinese sprangletop), foliage application (Chinese sprangletop; [3]): 3 (Herbicidal rate of 40% or more and less than 70%); Herbicidal effect on E (rice flat sedge), foliage application (rice flat sedge; [3]): 4 (Herbicidal rate of 70% or more and less than 90%); N (redroot pigweed) herbicidal effect grade (redroot pigweed; [5]): 5 (Herbicidal rate of 90% or more (almost completely withered)); O (lambsquarters) herbicidal effect grade (lambsquarters; [5]): 5 (Herbicidal rate of 90% or more (almost completely withered)); R (persian speedwell) herbicidal effect grade (persian speedwell; [5]): 5 (Herbicidal rate of 90% or more (almost completely withered))
COc1ccc2c(-c3c(OC(=O)C4CCCCC4)c(C)nn(C)c3=O)c(-c3ccccc3OC)sc2c1 [3-156]	4 (Herbicidal rate of 70% or more and less than 90%)	3 (Herbicidal rate of 40% or more and less than 70%)	5 (Herbicidal rate of 90% or more (almost completely withered))	4 (Herbicidal rate of 70% or more and less than 90%)	3 (Herbicidal rate of 40% or more and less than 70%)								Herbicidal effect by soil treatment, F: southern crabgrass (southern crabgrass): 0 (Herbicidal rate of 5% or less (almost no effect)); Herbicidal effect by soil treatment, H: barnyard grass (barnyard grass [2]): 0 (Herbicidal rate of 5% or less (almost no effect)); Herbicidal effect by soil treatment, L: windgrass (windgrass): 0 (Herbicidal rate of 5% or less (almost no effect)); Herbicidal effect by soil treatment, P: chickweed (chickweed): 3 (Herbicidal rate of 40% or more and less than 70%); herbicidal effect on N: redroot pigweed (evaluation grade 0-5) (redroot pigweed; [6]): 5 (Herbicidal rate of 90% or more (almost completely withered)); herbicidal effect on O: lambsquarters (evaluation grade 0-5) (lambsquarters; [6]): 4 (Herbicidal rate of 70% or more and less than 90%); herbicidal effect on R: persian speedwell (evaluation grade 0-5) (persian speedwell; [6]): 5 (Herbicidal rate of 90% or more (almost completely withered))
CCCC(=O)Oc1c(C)nn(C)c(=O)c1-c1c(-c2ccc(C#N)cc2)sc2c(Cl)cccc12 [4-032]	0 (Herbicidal rate of 5% or less (almost no effect))	0 (Herbicidal rate of 5% or less (almost no effect))	4 (Herbicidal rate of 70% or more and less than 90%)	3 (Herbicidal rate of 40% or more and less than 70%)	5 (Herbicidal rate of 90% or more (almost completely withered))								Herbicidal effect by soil treatment, F: southern crabgrass (southern crabgrass): 0 (Herbicidal rate of 5% or less (almost no effect)); Herbicidal effect by soil treatment, H: barnyard grass (barnyard grass [2]): 0 (Herbicidal rate of 5% or less (almost no effect)); Herbicidal effect by soil treatment, L: windgrass (windgrass): 0 (Herbicidal rate of 5% or less (almost no effect)); Herbicidal effect by soil treatment, P: chickweed (chickweed): 3 (Herbicidal rate of 40% or more and less than 70%); herbicidal effect on N: redroot pigweed (evaluation grade 0-5) (redroot pigweed; [6]): 5 (Herbicidal rate of 90% or more (almost completely withered)); herbicidal effect on O: lambsquarters (evaluation grade 0-5) (lambsquarters; [6]): 3 (Herbicidal rate of 40% or more and less than 70%); herbicidal effect on R: persian speedwell (evaluation grade 0-5) (persian speedwell; [6]): 5 (Herbicidal rate of 90% or more (almost completely withered))
CCCC(=O)Oc1c(CC)nn(C)c(=O)c1-c1c(-c2ccc(C(F)(F)F)cc2)sc2ccc(F)cc12 [2-411]	0 (Herbicidal rate of 5% or less (almost no effect))	3 (Herbicidal rate of 40% or more and less than 70%)								5 (Herbicidal rate of 90% or more (almost completely withered))	4 (Herbicidal rate of 70% or more and less than 90%)	5 (Herbicidal rate of 90% or more (almost completely withered))	herbicidal effect on H: barnyard grass (barnyard grass [1]; [3]): 5 (Herbicidal rate of 90% or more (almost completely withered)); herbicidal effect on D: Chinese sprangletop (Chinese sprangletop; [3]): 3 (Herbicidal rate of 40% or more and less than 70%); herbicidal effect on E: rice flat sedge (rice flat sedge; [3]): 3 (Herbicidal rate of 40% or more and less than 70%); herbicidal effect, F: southern crabgrass (southern crabgrass): 0 (Herbicidal rate of 5% or less (almost no effect)); herbicidal effect, H: barnyard grass (barnyard grass [2]): 0 (Herbicidal rate of 5% or less (almost no effect)); herbicidal effect, L: windgrass (windgrass): 0 (Herbicidal rate of 5% or less (almost no effect)); herbicidal effect, P: chickweed (chickweed): 1 (Herbicidal rate of 5% or more and less than 20%)
